Measurements as given in PMC9230797, “Integration of a Physiologically Based Pharmacokinetic and Pharmacodynamic Model for Tegoprazan and Its Metabolite: Application for Predicting Food Effect and Intragastric pH Alterations” (Pharmaceutics, 2022).
“And” between values parts separate entries of the source, which are not always exact repeats. Identical values can stand only once. Like-named read-outs stand apart in the source and are kept apart here.

Key:
Caco-2 cells = test: Caco-2 permeability assay; format: in vitro ADME; conditions: pH 7.4/7.4, 10 µM; for Papp / Transport Rate: single replicates; for Recovery: single replicates A-C
Description: Caco-2 cells were cultured in DMEM supplemented with 20% FBS, 1% non-essential amino acids, and 1% penicillin-streptomycin. Caco-2 cells were seeded onto collagen-coated 12-Transwell membranes at a density of 5 × 10^5 cells/mL and incubated under optimal conditions (maintained at 37 °C in a humidified atmosphere with 5% CO2/95% air) for 21 days. The culture medium was replaced every second day. For the experiments, after the growth medium was removed, the attached cells were washed with pre-warmed HBSS (pH 7.4) and pre-incubated with HBSS for 20 min at 37 °C. The integrity of the cell monolayers was evaluated before and after the permeability experiments by measuring transepithelial electrical resistance (TEER) values using an epithelial volt/ohm meter (World Precision Instruments, Sarasota, FL, USA). Caco-2 cells with TEER values higher than 300 Ω∙cm^2 were used for permeability experiments, and alterations in TEER values were less than 10% in all cases (i.e., 417.3 ± 6.3 Ω∙cm^2 and 400.8 ± 3.5 Ω∙cm^2, before and after the permeability experiments, respectively).
To determine the apical to basal (A to B) permeability of tegoprazan, 0.5 mL of HBSS containing 10 µM tegoprazan and 1.5 mL of fresh HBSS were added to the apical and basal side of the insert, respectively. The insert was transferred to a new well that contained 1.5 mL of fresh HBSS every 15 min, for 1 h. Aliquots (0.3 mL) on the basal side were transferred to fresh tubes and stored at −80 °C until further analysis. To investigate B-to-A permeability, 1.5 mL of HBSS containing 10 µM tegoprazan and 0.5 mL of fresh HBSS were added to the basal and apical sides of the insert, respectively. Aliquots (0.3 mL) on the apical side were transferred to fresh tubes, and 0.3 mL of pre-warmed fresh HBSS was replaced every 15 min for 1 h. The transport study was performed for 1 h based on the linearity of the cumulative transported tegoprazan amount versus transport time. The cumulative transported amount was calculated as the sum of transported amounts for 0–15 min, 15–30 min, 30–45 min, and 45–60 min, and the transport rate of tegoprazan was the slope of the regression line derived from the cumulative transported amount versus time plot. The apparent permeability (Papp) was calculated from the following Equation (2):(2) Papp(10^−6cm/s)=transport rate (nmol/min)/concentration (μM)× area(cm^2)×60 s
Caco-2 and rCYP samples were quantified using LC-MS/MS (UPLC® I-class coupled with TQ-MS (Waters, Milford, MA, USA). The mobile phase comprised (a) 0.1% formic acid and (b) acetonitrile containing 0.1% formic acid. Gradient elution at a flow rate of 0.3 mL/min was applied. Tegoprazan, M1, and the internal standard (tegoprazan-d6) were optimized in electrospray ionization positive mode. Acetonitrile with 0.1 μM of tegoprazan-d6 was added to the collected Caco-2 or rCYP samples. Then, processed samples were centrifuged at 13,000× g for 20 min. After centrifugation, 100 μL of supernatant was transferred to an LC-MS vial and analyzed using LC-MS/MS. The analytical method was validated based on the Bioanalytical Method Validation Guidance for Industry published by the US Food and Drug Administration and the Guideline on Bioanalytical Method Validation published by the Korean Ministry of Food and Drug Safety (MFDS). Linearity was in the range of 0.1–20 µM, and the inter-batch accuracy and precision were in the ranges of 91.8–101.3% and 2.3–8.9%, respectively. The stability of tegoprazan was evaluated, and it satisfied the acceptance criteria (coefficient of variances was within 15%) under variable conditions including reinjection, processed sample stability (PSS), and short-term stability for the stock and sample.

[1] = PBPK model prediction of plasma PK (SimCYP simulator); design: species or system human
Excerpt: The tegoprazan and M1 PBPK models were developed using SimCYP® simulator, version 20 (Certara, Princeton, NJ, USA). Compound libraries were incorporated into an in vitro dataset, including the microsomal clearance of tegoprazan and M1. Observed PK parameters were obtained from the aforementioned clinical studies (Table 1 and Table 2).
The absorption of tegoprazan was applied to the advanced dissolution, absorption, and metabolism (ADAM) model, and the diffusion layer model (DLM) built into SimCYP® was applied to the considered formulation and pH-dependent solubility of tegoprazan. The permeability of tegoprazan was determined by a Caco-2 permeability assay and optimized by parameter estimation. Caco-2 permeability was optimized such that the predicted concentration–time profiles were fitted to clinical study data. The metabolite was generated by the metabolism of the parent drug; therefore, absorption was not considered.
The tissue distribution in the PBPK model was predicted by the distribution model (e.g., Rodger and Rowland method, Poulin and Theil method) and the tissue:plasma partition coefficient (Kp) scalar for specific organ or global values. Predicted systemic distribution was expressed as the volume of distribution in a steady state (Vss). The Vd values of the clinical study were applied to the initial model of tegoprazan, and parameter estimation was used to determine the optimized Kp scalar fitted to the observed data. The Rodger and Rowland method (method 2) was applied to consider the weak base property and distribution of the neutral and ionic forms. The minimal PBPK model was applied to the M1 distribution module to reduce the complexity. The volume of a single adjusting compartment (Vsac), non-physiological compartment, input rate to SAC (kin), and elimination rate from SAC (kout) were estimated using the parameter estimation module within SimCYP®.
The elimination profiles of tegoprazan and M1 were obtained from in vitro, in vivo, and in silico predictions. Optimized in-house intrinsic clearance for CYPs (CLint,rCYPs), and human liver microsomal and cytosolic (HLM and HLC) clearance were applied to the elimination module of the tegoprazan model. Observed or estimated renal and biliary clearance were applied to the tegoprazan and M1 models. Whole-organ metabolic clearance, using the optimized value for the in vitro assay results, was applied to the M1 model.
The virtual dosing regimen was set to a single oral dose of 100 mg tegoprazan, to match that of the observed data. The simulation conditions were set for 100 virtual subjects who participated in 10 virtual clinical studies (1000 volunteers). The age range was 20 to 40 years, and the male-to-female ratio was 1:1. The predicted and observed PK parameters were compared to evaluate the model prediction results. […] If the predicted vs. observed ratio and its 95% CI were within the 30% range (0.7–1.3), the model was considered to fit well.
Postprandial PK profiles were predicted using an established model. Concentration–time profiles were obtained following a single oral dose (50 mg) of tegoprazan in the fasting state or 30 min after a high-fat diet. The predicted AUClast, Cmax, and Tmax values were compared with those of a previous clinical study.

intragastric pH = test system: intragastric pH; design: method as in PMID 31437865; conditions: Observed (n = 6), cited from earlier work
[2] = At 30 min after a high-fat meal, single 50 mg
[3] = single 100 mg tegoprazan, (95% confidence interval)

- Papp (Caco-2 cells; A to B): 11.01 ×10⁻⁶ cm/s and 13.23 ×10⁻⁶ cm/s
- Transport Rate (Caco-2 cells; A to B): 0.56 nmol/h and 0.48 nmol/h
- Recovery (Caco-2 cells; A to B): 86.4%
- Papp (Caco-2 cells; B to A): 10.36 ×10⁻⁶ cm/s and 13.36 ×10⁻⁶ cm/s
- Recovery (Caco-2 cells; B to A): 88.7% and 78.3%
- increase of predicted Cmax at Day 7 compared with Day 1 ([1]; 100 mg once daily): approximately 1.84%
- AUC0–24 h Ratio (Predicted/Observed) [1, 2]: 0.88 (0.43–1.32)
- Cmax Ratio (Predicted/Observed) [1, 2]: 0.96 (0.32–1.59)
- AUC0–24 h Ratio (Predicted/Observed) ([1]; Fast, single 50 mg): 0.89 (0.45–1.33)
- Cmax Ratio (Predicted/Observed) ([1]; Fast, single 50 mg): 0.85 (0.62–1.09)
- decrease of predicted mean Cmax after a high-fat diet vs fasted state ([1]; single 50 mg): 31.3%
- AUC0–24 h Ratio (Predicted/Observed) [1, 3]: 0.90 (0.85–0.96)
- CL Ratio (Predicted/Observed) [1, 3]: 1.25 (1.17–1.34)
- Cmax Ratio (Predicted/Observed) [1, 3]: 0.88 (0.80–1.00)
Compound: Cc1nc2cc(C(=O)N(C)C)cc(O[C@H]3CCOc4cc(F)cc(F)c43)c2[nH]1 [tegoprazan]
- Transport Rate (Caco-2 cells; B to A): 0.49 nmol/h and 0.46 nmol/h and 0.53 nmol/h
- pH ≥ 4 over 24 h (intragastric pH; 50 mg Single): 48.9%
- pH ≥ 4 over 24 h (intragastric pH; 100 mg q.d. for 7 Days, Day 1): 62.3%
- pH ≥ 4 over 24 h (intragastric pH; 100 mg q.d. for 7 Days, Day 7): 70.4%
